Experimental data reported in patent publication US12351634B2, “Use of cilengitide for ameliorating cardiac fibrosis occurring in response to myocardial infarction” (priority 2018, dated 2025).

Experiments:
[1] = tested on: mice subjected to MI via a complete LAD ligation; test: Myocardial infarction by LAD ligation, cilengitide vs vehicle; format: in vivo, mouse
[2] = tested on: FACS-isolated cardiac PW1+ cells; test: Pharmacological inhibition of PW1+ cells in vitro, Q-PCR on fibrosis markers; format: cell-based, mouse; settings: cilengitide 300 nM, 1000 nM vs vehicle, treated for 48 h
Method: Animals were injected with heparin (100 UI/25 g) before euthanasia. The right atrium was carefully nicked with surgical scissors and the heart was perfused with 10 mL of PBS (Gibco) through the right ventricle to remove the blood. After collecting the heart, the atria were trimmed away and the ventricles were finely sliced (0.5-1 mm^3). Cardiac cells were dissociated at 37° C. for 30 min by enzymatic digestion with 480 U/mL collagenase II (Worthington) in DPBS (GIBCO). The digestion was stopped with DMEM (Life Technologies) supplemented into 10% FBS (Sigma) and 1% penicillin/streptomycin (P/S; Life Technologies) and the cell suspension was filtered through 100 μm Falcon cell strainer before centrifugation at 416 g for 10 min at 4° C. The cell pellet was re-suspended in 500 μL of Red Blood Cell Lysing (RBCL) Buffer to lyse red blood cells at RT for 30 sec. DPBS was added before 10 min centrifugation in same conditions as above. The cell pellet was then re-suspended in 300 μL of HBSS (Gibco) containing 1% FBS (HBSS-1% FBS) to perform immunostaining for 45 min on ice in dark. The list of antibodies used is reported in supplemental table 1. After incubation, HBSS-1% FBS was added and cells centrifuged at 416 g for 10 min at 4° C. to perform PW1+ cells staining. For this, 300 μL of HBSS-1% FBS containing 60 μM of 5-Dodecanoylaminofluorescein Di-β-D-Galactopyranoside (C12FDG, ThermoFisher Scientific) a substrate for β-gal detection by flow cytometry was added on cells then incubated in dark at 37° C. for 1 h under constant agitation. Reaction was stopped by the addition of HBSS-1% FBS. After cell centrifugation, the pellet was re-suspended in 200 μL of HBSS-1% FBS, the viability dye propidium iodide (Sigma) was added and the samples were filtered through a 50 μm Filcon (BD bioscience) just before the analysis.
FACS sorted PW1^+ or PW1^− cells were plated at the density of 25 000 cell per cm^2 in culture plates coated with attachment factor (ThermoFisher Scientific). Cells were left to adhere overnight with 0.5 mL of growth medium (DMEM 10% FBS 1% P/S). The culture medium was changed the day after. At day 5, culture media was changed and supplemented with 0, 300 nM, or 1 μM of cilengitide. At day 6, medium was removed, and cells were washed twice with PBS. Cells were then lysed and RNA extracted followed by an RT-PCR. A Q-PCR was finally performed on selected fibrosis markers.
To test this hypothesis, we first investigated whether CD51 pharmacological inhibition affects the expression of profibrotic genes in freshly FACS-isolated cardiac PW1^+ cells. These cells were seeded and cultured for 4 days and then treated for 48 h with growing concentrations of cilengitide or vehicle. […]

[3] = tested on: cardiac PW1+ cells in PW1nLacZ-reporter mouse post-MI hearts; test: Short-term lineage tracing of cardiac PW1+ cells in post-MI heart sections; format: in vivo; settings: cardiac sections of post-MI (7 days) hearts, vs vehicle
Method: Male 8 weeks-old C57BL/6 or PW1-reporter (PW1^nLacZ) mice were anesthetized in an induction chamber with 2% isoflurane mixed with 1.0 L/min 100% 02 and placed on a supine position on a heating pad to maintain body temperature. The mice were intubated with endotracheal tube and then connected to a rodent ventilator (180 breaths/min and a tidal volume of 200 μl). During surgical procedure anesthesia is maintained at 1.5-2% isoflurane with O2. The chest was accessed from the left side through the intercostal space and the pericardium incised. The left anterior descending coronary artery (LAD) was exposed and encircled with a 8.0 prolene suture at the apex of the left ventricle. The suture was briefly snared to confirm the ligation by blanching the arterial region. Mice were analyzed 7 days after LAD permanent ligation.
Male C57BL/6J mice (Janvier labs) or PW1-reporter (PW1^nLacZ) mice received Cilengitide at 10 mg/kg/day (Adooq bioscience, ref: A12372) or vehicle i.p. for 14 days. LAD surgery was performed 7 days after starting cilengitide or vehicle administration. Mice were divided in 4 groups: MI-CIL (Cilengitide), MI-Veh (vehicle), Ctrl-CIL and Ctrl-Veh. […]

[4] = tested on: integrin αV, including αVβ1, αVβ3 and αVβ5; settings: cited from earlier work
[5] = sham animals (no MI), cilengitide 10 mg/kg/day i.p., data not shown

CC(C)[C@H]1C(=O)N[C@@H](CCCN=C(N)N)C(=O)NCC(=O)N[C@@H](CC(=O)O)C(=O)N[C@H](Cc2ccccc2)C(=O)N1C [cilengitide, 2-[(2S,5R,8S,11S)-5-benzyl-11-{3-[(diaminomethylidene)amino]propyl}-7-methyl-3,6,9,12,15-pentaoxo-8-(propan-2-yl)-1,4,7,10,13-pentaazacyclopentadecan-2-yl]acetic acid]
survival ([1]; 7 days after MI, cilengitide 10 mg/kg/day i.p. for 14 days, started 7 days before LAD ligation, vs vehicle, p<0.05 log-rank): significant improvement | cardiac function as measured by left ventricular ejection fraction ([1]; 7 days after MI, cilengitide 10 mg/kg/day i.p., vs vehicle): significant increase | infarct size ([1]; 7 days after MI, masson trichrome, digital image quantification, 10 mg/kg/day i.p., vehicle 56.8±14.9%, p=0.0008): 38.8±7.9% | interstitial fibrosis measured in the remote myocardial area ([1]; 7 days after MI, picrosirius red, 10 mg/kg/day i.p., vehicle 36.8±13.1%, p<0.0001): 15.9±10.4% | cardiac rupture (adverse outcome) ([1]; post-MI mice under cilengitide treatment): did not observe | cardiac fibrosis in sham animals [1, 5]: not associated with any changes | cardiac function in sham animals [1, 5]: not associated with any changes | survival in sham animals [1, 5]: not associated with any changes | Colla1 expression [2]: not affected | aSma (or Acta2) expression [2]: significant down-regulation | mmp2 expression [2]: significant down-regulation | tgfrb1 expression [2]: significant down-regulation | number of β-gal+ cells that did not express vimentin ([3]; p<0.001): significant increase | proportion of cells co-expressing β-gal and vimentin ([3]; p<0.05): significant reduction | inhibiting activity against the integrin αV [4]: strong inhibiting activity
